Data as given in US11802111B2, “Cyclobutyl amide monoacylglycerol lipase modulators” (Janssen Pharmaceutica NV, priority 2020, dated 2023).

biological target: human MGL from HeLa cells (Homo sapiens (Human), UniProt Q99685); assay: MGL in vitro activity assay ([glycerol-1,3-3H]-oleoyl glycerol hydrolysis, activated carbon filtration); assay type: biochemical; conditions: 300 nM [Glycerol-1,3-3H]-oleoyl glycerol, one hour
Summary of the method: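 Activity measured as tritium in the flow-through after activated carbon filtration of a 1 h reaction containing 300 nM 3H-oleoyl glycerol, compound and HeLa-derived human MGL. Compounds screened at 10 μM; IC50 series start at an empirically chosen highest concentration.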

Sequence of human MGL from HeLa cells (Q99685 whole entry): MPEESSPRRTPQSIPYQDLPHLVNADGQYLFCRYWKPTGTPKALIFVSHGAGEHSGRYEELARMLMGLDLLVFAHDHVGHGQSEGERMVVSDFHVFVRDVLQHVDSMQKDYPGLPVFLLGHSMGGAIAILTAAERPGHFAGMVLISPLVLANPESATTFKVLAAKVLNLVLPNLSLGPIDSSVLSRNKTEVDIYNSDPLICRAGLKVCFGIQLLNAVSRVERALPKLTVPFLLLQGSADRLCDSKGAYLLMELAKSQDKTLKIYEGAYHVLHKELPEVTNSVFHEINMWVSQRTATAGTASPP

Row | SMILES | IC50 [nM]
1 | CCc1cccc(CC2CC3(C2)CN(C(=O)[C@H]2C[C@@](C)(O)C2)C3)c1 [Example 222, (6-(3-Ethylbenzyl)-2-azaspiro[3.3]heptan-2-yl)((1s,3s)-3-hydroxy-3-methylcyclobutyl)methanone] | 5.1
2 | C[C@]1(O)C[C@@H](C(=O)N2CC3(CC(Cc4cccc(C(F)(F)F)n4)C3)C2)C1 [Example 223, ((1s,3s)-3-Hydroxy-3-methylcyclobutyl)(6-((6-(trifluoromethyl)pyridin-2-yl)methyl)-2-azaspiro[3.3]heptan-2-yl)methanone] | 169
3 | Cn1ccc2ccc(CC3CC4(C3)CN(C(=O)[C@H]3C[C@@](C)(O)C3)C4)nc21 [Example 224, ((1s,3s)-3-Hydroxy-3-methylcyclobutyl)(6-((1-methyl-1H-pyrrolo[2,3-b]pyridin-6-yl)methyl)-2-azaspiro[3.3]heptan-2-yl)methanone] | 27
4 | Cn1cc(CC2CC3(C2)CN(C(=O)[C@H]2C[C@@](C)(O)C2)C3)c(C(F)(F)F)n1 [Example 225, ((1s,3s)-3-Hydroxy-3-methylcyclobutyl)(6-((1-methyl-3-(trifluoromethyl)-1H-pyrazol-4-yl)methyl)-2-azaspiro[3.3]heptan-2-yl)methanone] | 119
5 | Cc1cccc(C(F)(F)F)c1CC1CC2(C1)CN(C(=O)[C@H]1C[C@@](C)(O)C1)C2 [Example 226, ((1s,3s)-3-Hydroxy-3-methylcyclobutyl)(6-(2-methyl-6-(trifluoromethyl)benzyl)-2-azaspiro[3.3]heptan-2-yl)methanone] | 2.1
6 | Cc1c(F)cccc1CC1CC2(C1)CN(C(=O)[C@H]1C[C@@](C)(O)C1)C2 [Example 227, (6-(3-Fluoro-2-methylbenzyl)-2-azaspiro[3.3]heptan-2-yl)((1s,3s)-3-hydroxy-3-methylcyclobutyl)methanone] | 20
7 | Cc1cc(CC2CC3(C2)CN(C(=O)[C@H]2C[C@@](C)(O)C2)C3)ccc1F [Example 228, (6-(4-Fluoro-3-methylbenzyl)-2-azaspiro[3.3]heptan-2-yl)((1s,3s)-3-hydroxy-3-methylcyclobutyl)methanone] | 15
8 | Cc1ccc(CC2CC3(C2)CN(C(=O)[C@H]2C[C@@](C)(O)C2)C3)cc1F [Example 229, (6-(3-Fluoro-4-methylbenzyl)-2-azaspiro[3.3]heptan-2-yl)((1s,3s)-3-hydroxy-3-methylcyclobutyl)methanone] | 12
9 | Cc1ccc(CC2CC3(C2)CN(C(=O)[C@H]2C[C@@](C)(O)C2)C3)c(F)c1 [Example 230, (6-(2-Fluoro-4-methylbenzyl)-2-azaspiro[3.3]heptan-2-yl)((1s,3s)-3-hydroxy-3-methylcyclobutyl)methanone] | 6.4
10 | C[C@]1(O)C[C@@H](C(=O)N2CC3(CC(Cc4cccc(C(F)F)c4)C3)C2)C1 [Example 231, (6-(3-(Difluoromethyl)benzyl)-2-azaspiro[3.3]heptan-2-yl)((1s,3s)-3-hydroxy-3-methylcyclobutyl)methanone] | 14
11 | C[C@]1(O)C[C@@H](C(=O)N2CC3(CC(Cc4ccc(C(F)F)cc4)C3)C2)C1 [Example 232, (6-(4-(Difluoromethyl)benzyl)-2-azaspiro[3.3]heptan-2-yl)((1s,3s)-3-hydroxy-3-methylcyclobutyl)methanone] | 11
12 | CC(C)(C)c1cccc(CC2CC3(C2)CN(C(=O)[C@H]2C[C@@](C)(O)C2)C3)n1 [Example 233, (6-((6-(tert-Butyl)pyridin-2-yl)methyl)-2-azaspiro[3.3]heptan-2-yl)((1s,3s)-3-hydroxy-3-methylcyclobutyl)methanone] | 273
13 | C[C@]1(O)C[C@@H](C(=O)N2CC3(CCC(Cc4ccccc4)CC3)C2)C1 [Example 235, (7-Benzyl-2-azaspiro[3.5]nonan-2-yl)((1s,3s)-3-hydroxy-3-methylcyclobutyl)methanone] | 40
14 | Cc1ccccc1CC1CCC2(CC1)CN(C(=O)[C@H]1C[C@@](C)(O)C1)C2 [Example 236, ((1s,3s)-3-Hydroxy-3-methylcyclobutyl)(7-(2-methylbenzyl)-2-azaspiro[3.5]nonan-2-yl)methanone] | 49
15 | C[C@]1(O)C[C@@H](C(=O)N2CC3(CC(Cn4ccc(C(F)(F)F)n4)C3)C2)C1 [Example 237, ((1s,3s)-3-Hydroxy-3-methylcyclobutyl)(6-((3-(trifluoromethyl)-1H-pyrazol-1-yl)methyl)-2-azaspiro[3.3]heptan-2-yl)methanone] | 840
16 | Cc1ccccc1OC1CC2(C1)CN(C(=O)[C@H]1C[C@@](C)(O)C1)C2 [Example 238, ((1s,3s)-3-Hydroxy-3-methylcyclobutyl)(6-(o-tolyloxy)-2-azaspiro[3.3]heptan-2-yl)methanone] | 541
17 | Cc1cc(OC2CCC3(CC2)CN(C(=O)[C@H]2C[C@@](C)(O)C2)C3)ccc1C(F)(F)F [Example 239, ((1s,3s)-3-Hydroxy-3-methylcyclobutyl)(7-(3-methyl-4-(trifluoromethyl)phenoxy)-2-azaspiro[3.5]nonan-2-yl)methanone] | 0.4

Row | SMILES | IC50 [nM]
18 | CC(C)c1cccc(OC2CCC3(CC2)CN(C(=O)[C@H]2C[C@@](C)(O)C2)C3)c1 [Example 241, ((1s,3s)-3-Hydroxy-3-methylcyclobutyl)(7-(3-isopropylphenoxy)-2-azaspiro[3.5]nonan-2-yl)methanone] | 27
19 | CC(C)c1ccc(OC2CCC3(CC2)CN(C(=O)[C@H]2C[C@@](C)(O)C2)C3)cc1 [Example 242, ((1s,3s)-3-Hydroxy-3-methylcyclobutyl)(7-(4-isopropylphenoxy)-2-azaspiro[3.5]nonan-2-yl)methanone] | 6.3
20 | CC(C)(C)c1cccc(OC2CC3(C2)CN(C(=O)[C@H]2C[C@@](C)(O)C2)C3)c1 [Example 244, (6-(3-(tert-Butyl)phenoxy)-2-azaspiro[3.3]heptan-2-yl)((1s,3s)-3-hydroxy-3-methylcyclobutyl)methanone] | 63
21 | Cc1ccc(OC2CC3(CCN(C(=O)[C@H]4C[C@@](C)(O)C4)CC3)C2)cc1 [Example 245, ((1s,3s)-3-Hydroxy-3-methylcyclobutyl)(2-(p-tolyloxy)-7-azaspiro[3.5]nonan-7-yl)methanone] | 329
22 | CC(C)(C)c1ccc(OC2CC3(C2)CN(C(=O)[C@H]2C[C@@](C)(O)C2)C3)cc1 [Example 246, (6-(4-(tert-Butyl)phenoxy)-2-azaspiro[3.3]heptan-2-yl)((1s,3s)-3-hydroxy-3-methylcyclobutyl)methanone] | 84
23 | Cc1cc(OC2CC3(C2)CN(C(=O)[C@H]2C[C@@](C)(O)C2)C3)ccc1C(F)(F)F [Example 247, ((1s,3s)-3-Hydroxy-3-methylcyclobutyl)(6-(3-methyl-4-(trifluoromethyl)phenoxy)-2-azaspiro[3.3]heptan-2-yl)methanone] | 14
24 | Cc1ccc(OC2CC3(C2)CN(C(=O)[C@H]2C[C@@](C)(O)C2)C3)cc1C(F)(F)F [Example 248, ((1s,3s)-3-Hydroxy-3-methylcyclobutyl)(6-(4-methyl-3-(trifluoromethyl)phenoxy)-2-azaspiro[3.3]heptan-2-yl)methanone] | 114
25 | Cc1cc(C(F)(F)F)ccc1OC1CC2(C1)CN(C(=O)[C@H]1C[C@@](C)(O)C1)C2 [Example 249, ((1s,3s)-3-Hydroxy-3-methylcyclobutyl)(6-(2-methyl-4-(trifluoromethyl)phenoxy)-2-azaspiro[3.3]heptan-2-yl)methanone] | 20
26 | Cc1cccc(OC2CC3(C2)CN(C(=O)[C@H]2C[C@@](C)(O)C2)C3)c1C(F)(F)F [Example 250, ((1s,3s)-3-Hydroxy-3-methylcyclobutyl)(6-(3-methyl-2-(trifluoromethyl)phenoxy)-2-azaspiro[3.3]heptan-2-yl)methanone] | 35
27 | CC(C)c1cccc(OC2CC3(C2)CN(C(=O)[C@H]2C[C@@](C)(O)C2)C3)c1C(F)(F)F [Example 251, ((1s,3s)-3-Hydroxy-3-methylcyclobutyl)(6-(3-isopropyl-2-(trifluoromethyl)phenoxy)-2-azaspiro[3.3]heptan-2-yl)methanone] | 7.4
28 | Cc1c(OC2CC3(C2)CN(C(=O)[C@H]2C[C@@](C)(O)C2)C3)cccc1C(F)(F)F [Example 252, ((1s,3s)-3-Hydroxy-3-methylcyclobutyl)(6-(2-methyl-3-(trifluoromethyl)phenoxy)-2-azaspiro[3.3]heptan-2-yl)methanone] | 47
29 | CC(C)(C)c1cccc(OC2CCC3(CC2)CN(C(=O)[C@H]2C[C@@](C)(O)C2)C3)c1 [Example 257, (7-(3-(tert-Butyl)phenoxy)-2-azaspiro[3.5]nonan-2-yl)((1s,3s)-3-hydroxy-3-methylcyclobutyl)methanone] | 8.1
30 | Cc1cc(C(F)(F)F)ccc1OC1CCC2(CC1)CN(C(=O)[C@H]1C[C@@](C)(O)C1)C2 [Example 258, ((1s,3s)-3-Hydroxy-3-methylcyclobutyl)(7-(2-methyl-4-(trifluoromethyl)phenoxy)-2-azaspiro[3.5]nonan-2-yl)methanone] | 0.2
31 | Cc1ccc(OC2CCC3(CC2)CN(C(=O)[C@H]2C[C@@](C)(O)C2)C3)cc1C(F)(F)F [Example 259, ((1s,3s)-3-Hydroxy-3-methylcyclobutyl)(7-(4-methyl-3-(trifluoromethyl)phenoxy)-2-azaspiro[3.5]nonan-2-yl)methanone] | 3
32 | CC(C)(C)c1ccc(OC2CCC3(CC2)CN(C(=O)[C@H]2C[C@@](C)(O)C2)C3)cc1 [Example 260, (7-(4-(tert-Butyl)phenoxy)-2-azaspiro[3.5]nonan-2-yl)((1s,3s)-3-hydroxy-3-methylcyclobutyl)methanone] | 10
33 | C[C@]1(O)C[C@@H](C(=O)N2CC3(CCC(Oc4ccc(C5CC5)cc4)CC3)C2)C1 [Example 261, (7-(4-Cyclopropylphenoxy)-2-azaspiro[3.5]nonan-2-yl)((1s,3s)-3-hydroxy-3-methylcyclobutyl)methanone] | 7.2
34 | C[C@]1(O)C[C@@H](C(=O)N2CC3(CCC(Oc4ccc(OC(F)(F)F)cc4)CC3)C2)C1 [Example 262, ((1s,3s)-3-Hydroxy-3-methylcyclobutyl)(7-(4-(trifluoromethoxy)phenoxy)-2-azaspiro[3.5]nonan-2-yl)methanone] | 3.2
